Laboratory results as given in patent EP2589385A1, “TRIPLE COMBINATION FOR THE TREATMENT OF CANCER” (Fundación Centro Nacional de Investigaciones Oncológicas, priority 2011, dated 2013).

Key:
A6L and 185 cells = experiment: Sphere formation assay (CSC self-renewal); type: cell-based, human; details: for sphere formation / sphere forming capacity: 10, 20, and 40µM, 7 days, vs control
Method: (§1) Human pancreatic tumours were obtained with written informed consent from all patients. For in vitro studies, tissue fragments were minced, enzymatically digested with collagenase (Stem Cell Technologies, Vancouver, BC) for 90 min at 37°C (Mueller TM et al. Gastroenterology 2009 137(3):1102-13) and after centrifugation for 5 min at 1200 rpm the pellets were resuspended and cultured in RPMI, 10%FBS and 50units/ml pen/strep. Pancreatic cancer spheres were generated by placing the pancreatic cancer cell in suspension (20,000 cells/ml) in serum-free DMEM/F12 media, supplemented with B27 (1:50, Invitrogen), 20ng/ml bFGF and 50units/ml pen/strep. After 7 days of incubation, spheres were typically >75µm big with ~97% CD133high. For serial passaging, 7-day-old spheres were harvested using 40µm cell strainers, dissociated to single cells with trypsin, and then re-grown for 7 days. Cultures were kept no longer than 4 weeks after recovery from frozen stocks.

[1] = system: pancreatic cancer cells (185 and A6L); experiment: Invasion assay, modified Boyden chamber with Matrigel; type: cell-based, human; details: for effects of Nodal and Activin on cell invasiveness: cells pretreated with inhibitor at 20µM
Method: Invasion assays were performed using modified Boyden chambers filled with Matrigel™ (BioCoat®, BD Biosciences, Heidelberg, Germany). […] 500µl of cell suspensions containing 5x10^4 pre-treated or untreated cells were added to the Matrigel™ coated inserts, and 750µl of serum-free medium with or without 300ng/ml recombinant human Nodal was added to the lower chamber. The assay chambers were incubated for 22h at 37°C. Invaded cells were fixed in 4% PFA and stained with DAPI. The ratios of cells in the lower chamber versus total seeded cells (in per cent) were calculated.

[2] = system: human primary pancreatic cancer cells (A6L and 185); experiment: Viability of adherent cells after inhibitor pretreatment; type: cell-based; details: pretreatment with inhibitor
CD133+ cells = experiment: Cell cycle analysis with BrdU flow kit; type: cell-based, human
phosphorylation of Smad2 = experiment: Smad2 phosphorylation assay (western blot); type: cell-based, human; details: simultaneous treatment with inhibitor and rNodal or rActivin
Source text: PVDF membranes containing electrophoretically separated proteins from human primary pancreatic cancer cells and spheres were probed with mouse antibodies against Nodal (ab556676; Abcam, Inc.), Smad2 (3103; Cell Signalling Technology, Inc.), GAPDH (ab8245-100; Abcam, Inc.), Smad4 (sc-7966; Santa Cruz Biotechnology, Inc.) and rabbit antibody against pSmad2 (3108; Cell Signalling Technology, Inc.), treated with peroxidase-conjugated goat anti-mouse or anti-rabbit Ig secondary antibody (Sigma), and then visualized by enhanced chemoluminescence (Amersham, Inc.). Human primary pancreatic cancer cells were serum-starved for 3h in RPMI (GIBCO). Following starvation, the cells were incubated for 30 min at 37°C with recombinant human Nodal or Activin proteins (300 ng/ml and 100 ng/ml, respectively; R&D) either alone or in the presence of the SB431542 (10 µM, Sigma). Anti-Smad2 and anti-phospho-Smad2 (Ser465/467) Antibodies (Cell Signalling Technology) were used, following the manufacturer's instructions.

CD133+ population = experiment: CD133 content by flow cytometry after in vitro treatment; type: cell-based, human
Method: To identify pancreatic CSC, the following antibodies were used: anti-CD133/1-APC or PE; CD133/2-APC (all Miltenyi, Bergisch-Gladbach, Germany) was used for purity testing after MACSorting; EpCAM-FITC, CD44-PE or appropriate isotype-matched control antibodies (Beckton Dickinson, Heidelberg, Germany). Propidium iodide or 7-AAD was used for exclusion of dead cells (eBiosciences, San Diego, CA). Samples were analysed by flow cytometry using a FACS Canto II (BD) and data were analysed with FlowJo 9.2 software (Ashland, Oregon).

[3] = system: cells isolated from harvested tumours; experiment: Sphere formation capacity of cells isolated from treated tumours on day 100; type: cell-based, human; details: cells from tumours harvested on day 100 (Fig. 7G, left panel)
Method: as §1

CD133+ CSC = details: treatment with gemcitabine; cited from earlier work
[4] = system: primary human pancreatic cancer tissue xenografts; experiment: In vivo treatment of primary human pancreatic cancer tissue xenografts; parameters: species or system female NMRI nu/nu mice
Method: (§2) Single-cell suspensions were either orthotopically implanted into the pancreas of female NMRI nu/nu mice (Janvier, Le Genest-Saint-Isle, France) or 2mm3 pieces of primary, in vivo expanded pancreatic cancer tissue were subcutaneously implanted, and mice were randomized to the respective treatment groups. Size and weight of the pancreatic tumours were monitored. Gemcitabine was administered twice a week (125 mg/kg i.p.). SB431542 was used at 25 mg/kg and CUR199691 at 100 mg/kg, both by oral gavages twice daily for three weeks.

[5] = system: xenotransplanted human pancreatic cancer; details: in vivo therapy with gemcitabine; cited from earlier work
L3.6pl cells = experiment: In vivo treatment of established orthotopic pancreatic cancer cell line xenografts; parameters: species or system female NMRI nu/nu mice
Method: as §2
Mice were analysed with a 3-Tesla MRI system (Magnetom Tim Trio, Siemens, Erlangen, Germany) using a dedicated small animal coil and T2-weighted scanning.

Cc1cccc(-c2nn3c(c2-c2ccnc4ccc(C(N)=O)cc24)CCC3)n1 [LY2157299]
sphere formation / sphere forming capacity (A6L and 185 cells): did not display any effects on sphere forming capacity
sphere forming capacity (A6L and 185 cells; summary statement of Example 8 (Fig. 4A)): neither the Alk5 inhibitor LY2157299 nor the TGF-β receptor II neutralizing antibodies resulted in significant changes of sphere forming capacity
enhanced invasiveness of CSC treated with rTGF-β ([1]; Alk5 inhibitor with rTGF-β): abrogated the enhanced invasiveness of CSC treated with rTGF-β
viability of adherent cells [2]: did not affect the viability of adherent cells

NC(=O)c1ccc(-c2nc(-c3ccc4c(c3)OCO4)c(-c3ccccn3)[nH]2)cc1 [SB431542]
sphere formation / sphere forming capacity (A6L and 185 cells): dose-dependently (10, 20, and 40µM) blocked sphere formation as compared to control
percentage of CD133+ cells in S phase (CD133+ cells): did not affect the percentage of CD133+ cells in S phase
percentage of apoptotic CD133+ cells (CD133+ cells; result in words): nor did it increase the percentage of apoptotic CD133+ cells
effects of Nodal and Activin on cell invasiveness [1]: significantly attenuated the effects of Nodal and Activin on cell invasiveness
cell invasion of sphere-derived cells ([1]; conditioned medium from PSC cells in the lower compartment (Fig. 17B)): Cell invasion was abrogated
reversal of rNodal/rActivin-enhanced phosphorylation of Smad2 (phosphorylation of Smad2): almost reversed this enhanced phosphorylation of Smad2
viability of adherent cells [2]: did not affect the viability of adherent cells
time until the CD133+ population replenished (CD133+ population; after four days of treatment with SB431542 alone): ≤ 48 h
CD133 content / CD133+ population (CD133+ population; four days of treatment): marked decrease in CD133 content

Cc1cccc(-c2[nH]c(C(C)(C)C)nc2-c2ccc3c(c2)OCO3)n1 [SB505124]
effects of Nodal and Activin on cell invasiveness [1]: significantly attenuated the effects of Nodal and Activin on cell invasiveness

Nc1ccn([C@@H]2O[C@H](CO)[C@@H](O)C2(F)F)c(=O)n1 [gemcitabine, 4-amino-l-[3,3-difluoro-4-hydroxy-5-(hydroxymethyl)tetrahydrofuran-2-yl]-1 H-pyrimidin-2-one]
sphere forming capacity [3]: strong sphere forming capacity
effect on CD133+ CSC (CD133+ CSC): no detectable effect
histological differentiation of remaining tumours ([4]; day 100): poor differentiation
tumour growth after gemcitabine withdrawal ([4]; long-term follow-up): reaccelerated in growth
CD133+ cells in the residual tumour tissue [5]: significant enrichment of CD133+ cells in the residual tumour tissue
survival / long-term survival (L3.6pl cells; follow-up until day 100 (Fig. 7C)): significantly prolonged survival
tumour take rate (L3.6pl cells; orthotopic cell line xenografts): 100%
median survival (L3.6pl cells; orthotopic cell line xenografts, treatment started one week after injection, control 32 days): 54 days
